The text below walks through data of patent publication US10078090B2, “SAB as a biomarker for degenerative diseases and therapeutic sensitivity in cancers” (The Florida International University Board of Trustees, priority 2014, dated 2018).

Entries after “also recorded” stand apart in the source; their conditions may differ. Where two headings read alike, the source gives them in different places.

For data set [1] the following is noted: patients; cited from earlier work.
The subject of data set [2] is SK-OV-3 ovarian cancer cells. The experiment in a line: Paclitaxel sensitivity of SK-OV-3 cells over-expressing SH3BP5. In kind it is cell-based, human. Conditions: paclitaxel following 48 hours of transfection.
Data set [3] concerns HeLa cells. The experiment in a line: Calculation of paclitaxel and cisplatin IC50s by TO-PRO-3 staining. The format is cell-based, human. How it is done: LY294002 was solubilized in dimethylformamide (DMF). HeLa cells were exposed to the indicated doses of LY294002 over 24 h for acute studies. […] For sub-chronic exposure, cells were dosed with 2 μM LY294002 for seven days. The media was exchanged every 48 h to sustain the drug concentrations.
Briefly, 10,000 cells were plated in a black-walled optically clear bottom 96-well plate. […] The cells were fixed in 4% paraformaldehyde for 25 min at room temperature, and stained with TO-PRO-3 (1 μM) in PBST (150 mM NaCl, 8 mM Na2HPO4, 3 mM KCl, 2 mM KH2PO4, pH 7.4, 0.05% Tween 20). The cells were then washed five times in PBST while gently rocking for 5 min at room temperature. Samples were protected from light during incubations. Assays were visualized on the Li-Cor Odyssey CLx imager, and IC50s were calculated using Graphpad® Prism.
Transient transfections with pLOC plasmids for expression and pLKO.1 plasmids for silencing (Open Biosystems) were used to modulate Sab levels. HeLa cells were plated at a density of 2×10^5 cells per 35-mm dish the day before transfections. Plasmids were mixed with FugeneHD (Promega) at a ratio of 3:1 according to the manufacturer's protocol. Protein levels were monitored by western blot analysis.
(§1) Studies using LY294002 have employed high doses (often >10 μM). […] For acute treatments, cells were dosed with 0.1% DMF or increasing concentrations of LY294002 (2 μM, 10 μM, and 50 μM) for 24 h.

Data set [4] has as its system SAB. The data set can be described thus: SAB levels in response to chronic cytotoxic processes. Conditions: treatment with CCCP.
Data set [5] deals with Sab expression. The data set can be described thus: Sab expression in LY294002-treated HeLa cells by quantitative western blot. The format is cell-based, human. As for the experimental part:
LY294002 was solubilized in dimethylformamide (DMF). HeLa cells were exposed to the indicated doses of LY294002 over 24 h for acute studies. The 24-h IC10 for LY294002 in HeLa cells to be ˜2 μM. For sub-chronic exposure, cells were dosed with 2 μM LY294002 for seven days. The media was exchanged every 48 h to sustain the drug concentrations.
Following 72 h of transfection, cells were lysed and proteins were harvested. Protein concentration was determined using the by Pierce BCA Assay kit. Proteins were resolved by SDS-PAGE, and transferred onto PVDF membranes. Membranes were incubated with Li-Cor Biosciences Odyssey Blocking for at least 1 h at room temperature. The membranes were then incubated with primary antibodies specific for Sab, JNK, p44/42 MAPK (Erk1/2), p38, GAPDH, Actin, Calnexin, TOM20, or α-tubulin at 1:1000 dilutions in blocking buffer. Membranes were washed three times for 5 min in PBST. Membranes were incubated with secondary antibodies in blocking buffer at 1:20,000 for fluorescently conjugated secondary antibodies. Membranes were again washed three times for 5 min in PBST. […]
(§2) Western blot images were acquired using the LI-COR Odyssey CLx imager. Fluorescence signals were acquired for the bands of interest. […]
HeLa cell mitochondria were primed using a sub-chronic (2 μM dose) of LY294002 for seven days. The concentration of SAB was monitored using quantitative western blot analysis on protein lysates taken on days 0, 3, and 7 of LY294002 treatment.
To determine if LY294002 impacted the concentration of JNK signaling on mitochondria, the expression of Sab was measured in HeLa cells in both acute and sub-chronic administration of LY294002. […] As time increased, there was a noticeable increase (˜8-fold) in Sab expression in the LY294002 compared to DMF-treated and untreated cells (FIG. 17B and quantified in FIG. 18B). […] To determine if mitochondrial translocation of JNK occurred during the sub-chronic treatment, mitochondrial isolates were analyzed for the presence of JNK on days 3 and 4 (the days of maximal JNK activation). […]
(In general: A western blot detects proteins with antibodies after separation by electrophoresis.)

The subject of data set [6] is HeLa cells. The experiment in a line: LY294002 toxicity / viability of HeLa cells. The format is cell-based, human. As for the experimental part: LY294002 was solubilized in dimethylformamide (DMF). HeLa cells were exposed to the indicated doses of LY294002 over 24 h for acute studies. […] […] The media was exchanged every 48 h to sustain the drug concentrations.
as §1

The subject of the next data set is JNK. The data set can be described thus: JNK activation and mitochondrial JNK in LY294002-treated HeLa cells by western blot. The format is cell-based, human. As for the experimental part:
Following 72 h of transfection, cells were lysed and proteins were harvested. Protein concentration was determined using the by Pierce BCA Assay kit. Proteins were resolved by SDS-PAGE, and transferred onto PVDF membranes. Membranes were incubated with Li-Cor Biosciences Odyssey Blocking for at least 1 h at room temperature. The membranes were then incubated with primary antibodies specific for Sab, JNK, p44/42 MAPK (Erk1/2), p38, GAPDH, Actin, Calnexin, TOM20, or α-tubulin at 1:1000 dilutions in blocking buffer. Membranes were washed three times for 5 min in PBST. Membranes were incubated with secondary antibodies in blocking buffer at 1:20,000 for fluorescently conjugated secondary antibodies. Membranes were again washed three times for 5 min in PBST. Western blots were developed using the Odyssey CLx imager (Li-Cor Biosciences).
Mitochondria were isolated from HeLa cells. […]
as §2
To determine if LY294002 impacted the concentration of JNK signaling on mitochondria, the expression of Sab was measured in HeLa cells in both acute and sub-chronic administration of LY294002. […] As time increased, there was a noticeable increase (˜8-fold) in Sab expression in the LY294002 compared to DMF-treated and untreated cells (FIG. 17B and quantified in FIG. 18B). […]

Data set [7] relates to SAB. The data set can be described thus: SAB levels in rats injected with 6-OHDA (ventral midbrain western blot, blood cells). In kind it is in vivo, rat. From the text:
Parkinson's disease-like state was induced in animals by localizing treatment to the ventral midbrains of rats using 6-hydroxydopamine. Blood was obtained from 6-hydroxydopamine treated rats and the control rats. Levels of SAB protein or RNA encoding SAB proteins in platelets and other blood cells were higher in 6-hydroxydopamine treated rats compared to control rats.
Further, disruption of SAB-mediated signaling using a small peptide to block kinase binding to SAB prevented 6-OHDA-induced motor deficiencies in rats (FIG. 8).

The test system of data set [8] is Sab expression. The data set can be described thus: In-cell western for SAB expression in SH-SY5Y cells treated with 6-OHDA. The format is cell-based, human. Conditions: increasing sub-chronic doses of 6-OHDA (0-100.00 nM, 24 hours). How it is done: Cells or tissue samples are placed in a fluorescent compatible plate (for example, a 96-well plate) and the sample can be fixed to the plate. The sample is then permeabilized using detergent to disrupt the plasma membrane. Primary antibodies to detect SAB (Abnova, Inc.) are then incubated with the samples. Following a brief wash, the cells are incubated with a fluorescently labeled secondary antibody used to recognize the primary antibody. The samples are washed again. The plate is then scanned on a Li-Cor Bioscience Odyssey CLx near-infrared scanner to measure the fluorescent signal from the sample. A high fluorescent signaling indicates a higher level of SAB protein, while a low fluorescence signal indicates a lower level of SAB protein.
An in-cell western allows detection of protein levels in cells cultured in a 96-well black walled plate. For this technique, the cells are fixed with paraformaldehyde following seeding and growth to 80% confluency. […] Using the LiCor Odyssey CLx near infrared imager, the relative amounts of protein in each well are quantified. […]
An example of in-cell western technology for the detection of SAB is shown in (FIG. 3). […] In a model of cytotoxicity, SH-SY5Y cells treated with increasing sub-chronic doses of the neurotoxin, 6-hydroxydopamine (6-OHDA) were seeded in a 96-well plate and monitored for SAB expression.

By IC50 is commonly meant the concentration at which inhibition is half-maximal.

Consider `Sc1ncnc2nc[nH]c12` [6-mercaptopurine], for which, in [1], the “Doses that can induce hepatotoxicity” value is “greater than 2 mg/kg”.

Regarding `CC(=O)O[C@H]1C(=O)[C@@]2(C)[C@H]([C@H](OC(=O)c3ccccc3)[C@]3(O)C[C@H](OC(=O)[C@H](O)[C@@H](NC(=O)c4ccccc4)c4ccccc4)C(C)=C1C3(C)C)[C@]1(OC(C)=O)CO[C@@H]1C[C@@H]2O` [Paclitaxel], in data set [2], the “Sensitivity to paclitaxel of SH3BP5 over-expressing cells compared to mock and D-AKAP1 over-expressing cells” value was 2.5 times. For the same molecule, the 50% inhibitory concentration (IC50) with HeLa cells [3] (Homo sapiens, HeLa, 24 h, acute (24 h) 2 μM LY294002, read-out: Paclitaxel IC50) was 14.1 µM; with HeLa cells [3] (Homo sapiens, HeLa, 24 h, acute (24 h) 10 μM LY294002, read-out: Paclitaxel IC50), 6.3 µM; in the data set with HeLa cells [3] (Homo sapiens, HeLa, 24 h, acute (24 h) 50 μM LY294002, read-out: Paclitaxel IC50), 1.9 µM; in the data set on HeLa cells [3] (Homo sapiens, HeLa, 24 h, acute (24 h) 50 μM LY294002, read-out: Paclitaxel IC50 (as worded in text)) it was 1.9 µM; in the data set on HeLa cells [3] (Homo sapiens, HeLa, 24 h, acute (24 h) 0.1% DMF, read-out: Paclitaxel IC50), 13.6 µM; with HeLa cells [3] (Homo sapiens, HeLa, 168 h, sub-chronic (7 days) 2 μM LY294002, read-out: Paclitaxel IC50) it was 5.1 µM. Further, the IC50 is 13.9 µM with HeLa cells [3] (Homo sapiens, HeLa, 168 h, sub-chronic (7 days) 0.1% DMF, read-out: Paclitaxel IC50); 28 µM in the data set with HeLa cells [3] (Homo sapiens, HeLa, Sab shRNA#2 + Sab:shRNA^r (rescue), read-out: Paclitaxel IC50); 13.4 µM in the data set on HeLa cells [3] (Homo sapiens, HeLa, ectopic expression of RFP, read-out: Paclitaxel IC50); 4.7 µM in the data set on HeLa cells [3] (Homo sapiens, HeLa, ectopic expression of Sab, read-out: Paclitaxel IC50); 13.8 µM with HeLa cells [3] (Homo sapiens, HeLa, ectopic expression of Sab: KIM1/2-L/A, read-out: Paclitaxel IC50); 61.8 µM in the data set with HeLa cells [3] (Homo sapiens, HeLa, gene silencing, Sab shRNA#1, read-out: Paclitaxel IC50). For the same molecule, the concentration for half-maximal inhibition (IC50) was 73.4 µM in the data set on HeLa cells [3] (Homo sapiens, HeLa, gene silencing, Sab shRNA#2, read-out: Paclitaxel IC50); 15.3 µM with HeLa cells [3] (Homo sapiens, HeLa, gene silencing, control shRNA, read-out: Paclitaxel IC50); 14.7 µM with HeLa cells [3] (Homo sapiens, HeLa, untreated, read-out: Paclitaxel IC50). Besides, the “Decrease in the IC50 of paclitaxel on increasing Sab expression” value with HeLa cells [3] (pLOC:Sab versus untreated, mock-transfected or RFP cells) is listed as 5 fold.

On to `N.N.[Cl][Pt][Cl]` [Cisplatin], for which the half-inhibitory concentration (IC50) in the data set on HeLa cells [3] (read-out: Cisplatin IC50, Sab shRNA#2 + Sab:shRNA^r (rescue)) was 0.0073 µM; in the data set on HeLa cells [3] (read-out: Cisplatin IC50, gene silencing, Sab shRNA#1), 0.0121 µM; in the data set with HeLa cells [3] (read-out: Cisplatin IC50, gene silencing, Sab shRNA#2) it was 0.0188 µM; in the data set on HeLa cells [3] (read-out: Cisplatin IC50, gene silencing, control shRNA), 0.0039 µM; in the data set on HeLa cells [3] (read-out: Cisplatin IC50, sub-chronic (7 days) 2 μM LY294002), 0.00054 µM; in the data set with HeLa cells [3] (read-out: Cisplatin IC50, untreated), 0.0032 µM.

`N#CC(C#N)=NNc1cccc(Cl)c1` [CCCP, carbonylcyanide m-chlorophenylhydrazone]: in the data set on SAB [4], the SAB levels entry is on record as “increased”.

Turning to `O=c1cc(N2CCOCC2)oc2c(-c3ccccc3)cccc12` [LY294002, 2-Morpholin-4-yl-8-phenylchromen-4-one], the “Increase in Sab expression compared to DMF-treated and untreated cells” value in the data set on Sab expression [5] (2 μM LY294002, 7 days) is on record as approximately 8 fold. The “SAB expression (in words)” value in the data set on Sab expression [5] (2 μM LY294002 for seven days) was “pronounced increase; also recorded: significant increase; also recorded: increased SH3BP5 expression”. Moreover, in the data set on Sab expression [5] (2 μM, 10 μM and 50 μM LY294002 over 24 h), the “Sab expression versus 0.1% DMF and untreated controls” value is given as “neither condition increased Sab expression”. The HeLa cell viability result with HeLa cells [6] (2 μM LY294002, seven days) is given as “little impact”; in the data set on HeLa cells [6] (10 μM and 50 μM LY294002, seven days), “lethal”. The “24-h IC10 for LY294002” value in the data set on HeLa cells [6] (HeLa cells, 24 h) is approximately 2 µM. In addition, in the data set on JNK (2 μM LY294002, between days 2 and 4), the “Increase in phospho-JNK levels” value is “over 10 fold”. Besides, the “JNK levels on mitochondria” value with JNK (2 μM LY294002, between days 3 and 4) is recorded as “increased”.

In the case of `NCCc1cc(O)c(O)cc1O` [6-OHDA, 6-hydroxydopamine], in the data set on SAB [7] (6-hydroxydopamine treated rats compared to control rats), the “Levels of SAB protein or RNA encoding SAB proteins in platelets and other blood cells” value is “higher”. Also, the “SAB levels in ventral midbrain” value in the data set on SAB [7] (rats stereotactically injected with 6-OHDA versus saline, six days post-injection) is “SAB levels increase; also recorded: elevated”. In addition, the SAB expression entry with Sab expression [8] is “elevates SAB expression; also recorded: increased in a dose-dependent manner”.
